# Test results as given in patent publication US20100267067A1, “Synthase Inhibitor Screening Method” (priority 2007, published 2010).
# What was measured:
# Assay type in all cases: cell-based
# [1] = tested on: Saccharomyces cerevisiae JG 169; experiment: Yeast growth on triglyceride (olive oil) plates containing cerulenin; conditions: 5 mg cerulenin per approx. 510 ml SC-ura agar with olive oil; pENI4158 (lipase) vs pENI3659 (control) transformants
# Experimental: Plasmids pENI3659 (control) and pENi4158 (with lipase gene) were transformed into the yeast strain Saccharomyces cerevisiae JG 169 (MAT-alpha; ura 3-52; leu 2-3, 112; his 3-D200; pep 4-113; prc1::HIS3; prb1::LEU2). The transformed yeast was streaked onto plates containing cerulenine and olive oil.
# To 450 ml SC-ura-basic agar was added 50 ml 20% glucose and 10 ml olive oil. An UltraTurax™ […] (IKA Labortechnik, Germany) was used to disperse the olive oil. 5 mg cerulenin dissolve in 1 ml ethanol was added and 500 microliter ampicillin (100 mg/ml)). This mix was poured into […] 9 cm petri dishes.
# SC-ura-basic agar: 7.5 g Yeast Nitrogen Base without amino acids, 11.3 g Bernstein, 6.8 g NaOH, 5.6 g casamino acids, 0.1 g L-tryptophan, 20 g agar in total of 900 ml water.
# [2] = tested on: Bacillus strain secreting a wildtype protease denoted '10R' (SOL000); experiment: Plate growth of Bacillus secreting wildtype 10R protease on LB agar with MGMM and CMA; conditions: for Growth on the plate, 10R WT (SOL000): LB agar with MGMM, 37° C. overnight
# Source text: (§1) We wanted to find a concentration of carboxymethoxylhydroxylamine (CMA) that allows only protease-secreting Bacillus colonies to grow in the presence of the small peptide met-gly-met-met (MGMM). CMA inhibits the methionine synthesis in Bacillus cells, which severely hampers their growth. However, in the presence of MGMM, protease-secreting Bacillus cells can grow on CMA containing media. Secreted proteases degrade the MGMM peptide thereby releasing free methionine residues, which are taken up by the protese-secreting Bacillus cells and used for protein synthesis.
# (§2) 500 ml LB agar was melted and placed in an incubator until the agar reached 60° C. 5 ml met-gly-met-met (MGMM, Sigma M4786-250MG) (5 mg/ml) and 300 microliter 1% chloramphenicol (in 70% ethanol) was added to the agar.
# (§3) 4×25 ml media was transferred with a 25 ml Stripette™ to clean 25 ml Nunc™ containers. Different amounts of CMA (Aldrich C13408-1 g) were added to the media as indicated in the scheme below. All 25 ml media was poured into 9 cm petri dishes and dried in a clean bench; except for the “6×CMA on the plate” where 25 ml media was poured on a 9 cm petridish and dried and 600 microliter CMA (0.56 mg/ml) was spread on the plate afterwards.
# (§4) The two micro-organisms were streaked on the 6 different types of plates. All plates were incubated upside down at 37° C. overnight.
# [3] = tested on: Bacillus strain secreting inactive 10R protease (S143A) (SOL218); experiment: Plate growth of Bacillus secreting inactive 10R protease on LB agar with MGMM and CMA; conditions: LB agar with MGMM, 37° C. overnight
# Source text: as §1, §2, §3, §4
# [4] = 5xCMA in the plate, 11.2 mg/L CMA
# [5] = 6xCMA in the plate, 13.4 mg/L CMA
# [6] = 6xCMA on the plate (spread on dried plate), 13.4 mg/L CMA
# [7] = 7xCMA in the plate, 15.7 mg/L CMA
# [8] = 8xCMA in the plate, 17.9 mg/L CMA
Structure (SMILES),Growth of transformed yeast on the triglyceride plates in the presence of cerulinine [1],"Growth on the plate, 10R WT (SOL000) [2, 4]","Growth on the plate, 10R WT (SOL000) [2, 5]","Growth on the plate, 10R WT (SOL000) [2, 6]","Growth on the plate, 10R WT (SOL000) [2, 7]","Growth on the plate, 10R WT (SOL000) [2, 8]","Growth of Bacillus transformant cells which secrete active 10R protease, versus those that do not ([2]; LB agar with 11.2 mg/L CMA as well as MGMM in the plate, summary of Table 3)","Growth on the plate, 10R inactive (SOL218) [3, 4]","Growth on the plate, 10R inactive (SOL218) [3, 5]","Growth on the plate, 10R inactive (SOL218) [3, 6]","Growth on the plate, 10R inactive (SOL218) [3, 7]","Growth on the plate, 10R inactive (SOL218) [3, 8]"
"C/C=C/C/C=C/CCC(=O)[C@H]1O[C@H]1C(N)=O [cerulinine, cerulenin]","Only yeast cells transformed with pENI4158, which express active lipase, were able to grow",,,,,,,,,,,
"O=C(O)CONO [CMA, carboxymethoxylhydroxylamine]",,Yes,No,No,No,No,only those can grow,No,No,No,No,No
